Each structure is given as a SMILES string.

From article PMC11783601, “Analogue-Sensitive Inhibition of Histone Demethylases Uncovers Member-Specific Function in Ribosomal Protein Synthesis” (Journal of the American Chemical Society, 2025) come the findings set out here.

The target of the assay is T1, KDM4A-F185A (Homo sapiens, UniProt O75164, F185A).
T1 construct: human KDM4A-jmjC domain (catalytic domain of KDM4A); 6xHis (N); host or cells: E. coli BL21 (DE3)
T1 sequence (O75164 142-308 F185A limits assumed): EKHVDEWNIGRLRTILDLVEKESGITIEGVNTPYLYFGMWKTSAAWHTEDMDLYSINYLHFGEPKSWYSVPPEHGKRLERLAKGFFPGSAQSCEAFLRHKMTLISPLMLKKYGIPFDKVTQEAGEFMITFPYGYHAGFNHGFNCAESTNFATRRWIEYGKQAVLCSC
The experiment in a line: Coupled fluorescence end-point assay for IC50. Type of assay: biochemical. As to the method:
To probe the efficacy of bulky NOGs against the mutant, the inhibitory constant at half-maximal (IC50) was determined by the coupled enzymatic assay using increasing amounts of the NOG analogue at fixed concentrations of cofactor and substrate.
NADH (ACROS, cat #124530050) was added to assay buffer (50 mM HEPES pH 8, 50 µM (NH4)2Fe(SO4)2, 1 mM L-ascorbic acid, 1 mM NAD+, 200 nM FDH, and 1 µM KDM4A) in varying concentrations (0-10 µM). The experiments were performed in 384-well white Corning plates. The fluorescence intensity was measured with excitation = 340 nm and emission = 490 nm on a TECAN Infinite M1000Pro. Triplicate values were taken for each concentration.
The set up and analysis for IC50 of L-Leu NOG against KDM4A F185A enzyme was similar to that described in the coupled fluorescence assay section, but adjusted to function as an end point assay. The assay composed of an enzyme cocktail (50mM HEPES pH 8.0, 75 µM (NH4)2Fe(SO4)2, 2 mM L-ascorbic acid, 1 mM NAD+, 200 nM FDH, 3 µM wild type KDM4A or KDM4A-F185A, and varying concentration of compounds (NOGs 6, 9 and 10) and a substrate cocktail (200 µM […]
2OG and 60 µM H3K9me3 peptide). […]
IC50 measurements were performed in triplicates. The data was plotted in GraphPad Prism to the equation Y=Bottom + (Top-Bottom)/(1+10^(X-LogIC50)), where Y = % Activity, and Bottom and Top being the lower and upper most plateaus of percent activity, respectively. […]

For orientation: IC50 means the point on the concentration scale where inhibition reaches its midpoint. As to `CC(C)CC(NC(=O)C(=O)O)C(=O)O` (stereo not drawn) [compound 6, N-oxalyl leucine], the IC50 is 700 ± 100 nM (dose-dependent inhibition of F185A, 200 µM 2OG, 60 µM H3K9me3 peptide); 700 ± 100 nM (time-dependent inhibition of F185A, 1 hour); 1200 ± 200 nM (time-dependent inhibition of F185A, 2 hour); 1500 ± 300 nM (time-dependent inhibition of F185A, 3 hour); 1800 ± 500 nM (time-dependent inhibition of F185A, 4 hour); 2200 ± 500 nM (time-dependent inhibition of F185A, 5 hour (text: monitored over more than 5 h)).
